{"source": "patent US20250228865A1", "about": "“COMPOUNDS FOR ENHANCING READ THROUGH OF GENES CONTAINING PREMATURE TERMINATION CODONS AND METHODS FOR MAKING AND USING THE SAME” (Sanofi US Services Inc., priority 2022, published 2025)", "key": {"[1]": {"system": "CFTR G542X", "assay": "Functional CFTR channel activity, TECC-24 electrophysiology, 16HBE cells (CFTR G542X readthrough)", "format": "cell-based, human", "description": "(§1) 16HBE human bronchial epithelial cells were seeded onto Transwell 24-well filter inserts coated with human collagen type IV. Cells were seeded 7 days prior to functional testing at a density of 1.7×10^5 cells onto the “apical” chamber filter of the Transwell insert. Cells were grown as submerged cultures (200 μL apical/700 μL basolateral) in Minimal Essential Medium (MEM) containing 10% qualified Fetal Bovine Serum and 1% Penicillin/Streptomycin and incubated at 37° C. and 5% CO2. Growth media on cells was replenished with fresh media every 1-3 days prior to test agent treatment day. After 7 days in culture, the CFTR-mediated chloride (Cl^−) equivalent current (Ieq) of the 16HBE cells was recorded, which may typically form electrically tight epithelia with a transepithelial resistance (Rt) of 2000-6000 Ω·cm2 as described below. Forty-eight hours prior to electrophysiological measurements, fresh growth media containing the test agents was applied to both chambers separating filter bound epithelial monolayer.\n(§2) On the day of electrophysiology studies, electrodes of a “Multi-(24-channel) transepithelial current clamp amplifier” (MTECC-24 (TECC-24 for short), EP Devices, Belgium) were soaked in an assay buffer (see below for composition) for at least 2 hours using 24-well Transwell plates without inserts. Cell culture media was replaced in the Transwell assay plates with assay buffer (see below) and the plates were mounted onto a custom-built automated robotic assay platform (Yamaha RCX240S controller) with heated plate holders set at 37° C. for 60 min. After equilibration, transepithelial potential difference (PD) and resistance (Rt) was monitoredat ˜5 min intervals using the TECC-24 transepithelial current clamp. Electrode potential differences were monitored for each pair of Ag/AgCl voltage electrodes by taking voltage measurements from a control (“blank”) plate with matching buffer solutions and 16HBE cells that were not treated with any test agent. PD values for each electrode pair were subtracted from the blank plate from that of the test plates at each time point. Ieq was calculated from the corrected PD values and Rt using Ohm's law. Ieq values were slope corrected to account for measurement drift over time using the equation: Slope corrected value=calculated Ieq−((time x slope)+y-intercept) with the slope and y-intercept calculated from the data points captured during the initial baseline period and following addition of the CFTR inhibitor.\n(§3) The equivalent current (Ieq) traces associated with CFTR channel activation were plotted as baseline subtracted mean±standard deviation from 3-4 separate wells on the 24-well Transwell (n=3-4). There are 4 recording periods, with the first set of data points recorded baseline Ieq currents prior to sequential activation of available CFTR channels with forskolin (10 μM) and then in combination with potentiator VX-770/ivacaftor (1 μM). Recorded the last set of data points in the presence of CFTR inhibitor CFTRinh-172 (20 μM) to confirm that currents are mediated via activation of CFTR channels. The test agents and control/reference compounds were pre-diluted to 10-fold concentrations in assay buffer and added manually using a multi-channel pipette to both the basolateral and apical side of the membrane (test plates only). Employed CFTR-mediated changes in Ieq, (i.e. forskolin/VX-770 activated currents) to measure functional CFTR surface expression or treatment-related functional rescue of mutant CFTR.\n(§4) The magnitude of test agent mediated enhancement of functional CFTR currents was calculated by comparing forskolin/VX-770 stimulated Ieq relative to baseline/CFTRinh-172 Ieq following 48 hour pretreatment with test agent(s) and normalizing to the forskolin/VX-770 stimulated Ieq determined following 48 hour pretreatment with a maximally effective concentration a reference control aminoglycoside agent (typically 110 μM G418). […]"}, "[2]": {"system": "CFTR R1162X", "assay": "Functional CFTR channel activity, TECC-24 electrophysiology, 16HBE cells (CFTR R1162X readthrough)", "format": "cell-based, human", "description": "as §1, §2, §3, §4"}, "[3]": {"system": "recombinant human CFTR carrying the premature stop codon (PTC) mutation G542X", "assay": "CFTR-PTC mutant translation readthrough, Nanoluc tagged CFTR luminescence (G542X cell line)", "format": "cell-based", "details": "10 μM G418 alone; 48 hours; cell line (G542X or R1162X) not specified", "procedure,_shortened": "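16HBE cells stably expressing Nanoluc-tagged human CFTR with G542X or R1162X, in medium with 3 μM VX-809, treated 48 h at 37 °C with compound (10-point, 2-fold, top 50 μM final) alone or with 10 μM G418. Live-cell Nanoluc luminescence normalised to a maximally effective G418 (125-250 μM).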"}, "[4]": {"details": "RTM conc. —, eRF3 modulator (CC-90009) 1 uM, ELX-02 100 uM"}, "[5]": {"details": "no RTM, eRF3 modulator (CC-90009) 1 uM, G418 10 uM"}, "[6]": {"details": "no RTM, eRF3 modulator (CC-90009) 10 uM, G418 10 uM"}, "[7]": {"details": "no RTM, eRF3 modulator (CC-90009) 1 uM, Paramomycin 2000 uM"}}, "note": "Values joined by “and” are separate entries in the source; they are usually repeats but may differ in a detail not shown here. Equal entries are not always repeated.", "data": [{"smiles": "C[C@H](N)[C@H]1O[C@@H](OC2C(O)C(N)CC(N)C2OC2OC([C@@H](C)O)C(O)C(O)C2N)C(O)C1O", "note": "(stereo partly drawn) [ELX-02, reference compound]", "values": [{"measurement": "Currents (% of 110 μM G418 (Max effect))", "setting": "[1]; [4]", "value": "191 % of 110 μM G418 (Max effect)"}, {"measurement": "Currents (% of 110 μM G418 (Max effect))", "setting": "[2]; [4]", "value": "198 % of 110 μM G418 (Max effect)"}]}, {"smiles": "CN[C@@H]1[C@@H](O)[C@@H](O[C@@H]2[C@@H](O)[C@H](O[C@H]3O[C@H]([C@@H](C)O)[C@@H](O)[C@H](O)[C@H]3N)[C@@H](N)C[C@H]2N)OC[C@]1(C)O", "note": "[Example G418, G418, reference compound]", "values": [{"measurement": "Currents (% of 110 μM G418 (Max effect))", "setting": "[1]; [5]", "value": "130 % of 110 μM G418 (Max effect)"}, {"measurement": "Currents (% of 110 μM G418 (Max effect))", "setting": "[1]; [6]", "value": "102 % of 110 μM G418 (Max effect)"}, {"measurement": "response (Nanoluc luminescence) relative to a maximally effective concentration of G418", "setting": "[3]", "value": "approximately 10 % of the response observed with a maximally effective concentration of G418 (typically 125-250 μM)"}, {"measurement": "Currents (% of 110 μM G418 (Max effect))", "setting": "[2]; [5]", "value": "110 % of 110 μM G418 (Max effect) and 95 % of 110 μM G418 (Max effect)"}, {"measurement": "Currents (% of 110 μM G418 (Max effect))", "setting": "[2]; [6]", "value": "130 % of 110 μM G418 (Max effect) and 139 % of 110 μM G418 (Max effect)"}]}, {"smiles": "NC[C@@H]1O[C@H](O[C@H]2[C@@H](O)[C@H](O[C@@H]3[C@@H](O)[C@H](N)C[C@H](N)[C@H]3O[C@H]3O[C@H](CO)[C@@H](O)[C@H](O)[C@H]3N)O[C@@H]2CO)[C@H](N)[C@@H](O)[C@@H]1O", "note": "[Paramomycin, paramomycin, reference compound]", "values": [{"measurement": "Currents (% of 110 μM G418 (Max effect))", "setting": "[1]; [7]", "value": "65 % of 110 μM G418 (Max effect)"}, {"measurement": "Currents (% of 110 μM G418 (Max effect))", "setting": "[2]; [7]", "value": "55 % of 110 μM G418 (Max effect)"}]}]}
